Experimental data: patent US8980830B2 (priority 2007, dated 2015)
Several values for one entry are separate records, joined by “and”; a condition that tells them apart may be missing. Equal values may be shown once. Bridge positions count the residues as written; N and C are the ends. Square brackets hold non-standard residues; d marks the D form. Side chains are listed from the residue outwards. Ends that are not written are not given here. Peptide text beside a SMILES is read from it. PhLac = O=C(O)[C@@H](O)Cc1ccccc1

Experiments:
Glucagon Receptor [1] = biological target: T1, Glucagon Receptor (Homo sapiens, UniProt P47871); assay: Glucagon receptor binding assay (scintillation proximity competition binding)
T1 sequence (P47871 26-477): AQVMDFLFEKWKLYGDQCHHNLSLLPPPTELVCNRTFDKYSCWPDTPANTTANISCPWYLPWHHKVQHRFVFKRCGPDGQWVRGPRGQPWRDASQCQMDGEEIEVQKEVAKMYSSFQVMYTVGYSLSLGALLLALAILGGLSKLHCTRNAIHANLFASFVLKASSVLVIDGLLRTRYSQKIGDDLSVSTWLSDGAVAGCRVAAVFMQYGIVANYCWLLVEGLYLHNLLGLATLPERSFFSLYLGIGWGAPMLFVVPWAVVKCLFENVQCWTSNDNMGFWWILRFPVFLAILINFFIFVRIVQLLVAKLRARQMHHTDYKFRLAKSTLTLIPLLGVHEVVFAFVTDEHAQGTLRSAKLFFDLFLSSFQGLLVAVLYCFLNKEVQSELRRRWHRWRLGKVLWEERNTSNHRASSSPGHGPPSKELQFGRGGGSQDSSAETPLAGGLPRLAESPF

Glucagon Receptor [2] = biological target: T1, Glucagon Receptor; assay: cAMP inhibition: antagonism of glucagon-induced cAMP at glucagon receptor; assay type: cell-based; design: expressed in transfected cells; host or cells: HEK293
Glucagon Receptor [3] = biological target: T1, Glucagon Receptor; assay: Functional assay, cAMP induction (luciferase reporter, HEK293) at glucagon receptor; assay type: cell-based; design: expressed in transfected cells; host or cells: HEK293
GLP-1 Receptor = GLP-1 Receptor (Homo sapiens, UniProt P43220); assay: Functional assay, cAMP induction (luciferase reporter, HEK293) at GLP-1 receptor; assay type: cell-based
Chain of GLP-1 Receptor (P43220 24-463): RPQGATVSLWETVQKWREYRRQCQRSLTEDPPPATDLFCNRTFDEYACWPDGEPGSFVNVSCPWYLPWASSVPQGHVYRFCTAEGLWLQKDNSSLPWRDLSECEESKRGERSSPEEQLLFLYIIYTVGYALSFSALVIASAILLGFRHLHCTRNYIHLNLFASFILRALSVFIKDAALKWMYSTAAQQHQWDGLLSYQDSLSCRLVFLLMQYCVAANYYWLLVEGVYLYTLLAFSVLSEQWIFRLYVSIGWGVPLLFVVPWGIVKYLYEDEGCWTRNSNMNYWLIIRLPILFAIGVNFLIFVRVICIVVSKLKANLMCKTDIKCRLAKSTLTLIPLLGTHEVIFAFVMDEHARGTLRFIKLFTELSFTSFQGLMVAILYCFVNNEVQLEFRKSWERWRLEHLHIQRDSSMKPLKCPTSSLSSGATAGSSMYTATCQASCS

[4] = Glucagon solubility assay; settings: Table 10
[5] = pH 7
[6] = read-out: IC50 (nM) (Receptor binding), Table 12
[7] = Table 7, average ±STD, at least three experiments

Compound: [E^9, C^11(20kDaPEG)]Glucagon(aa6-29)-NH2 (FTSEYC(PEG 20 kDa)KYLDSRRAQDFVQWLMNT-NH2)
- IC50 (Glucagon Receptor [1]; [6]): > 1000 nM
- IC50 (nM) (cAMP, inhibit 0.2 mM Glucagon) (Glucagon Receptor [2]; Table 12): no antagonism

Compound: HSQGTFTSDYARYLDARRAREFIKWLVRGRG-NH2 [ANK2 (Bayer peptide), reference compound]
- glucagon agonism, in words (Glucagon Receptor [3]): weak, but full glucagon agonism
- glucagon antagonism, in words (Glucagon Receptor [2]): no meaningful glucagon antagonism
- Glucagon IC50 (nM) (Glucagon Receptor [2]; Table 14): agonist
- Glucagon antagonism IC50 (nM, inhibit 0.8 nM glucagon) (Glucagon Receptor [2]; Table 19): weak agonist
- GLP-1 agonism, in words (GLP-1 Receptor): very potent GLP-1 agonism

Compound: [K^5(CH2CH2S-20kDaPEG), E^9]Glucagon(aa5-29)-NH2 (K([CH2CH2S-PEG 20 kDa])FTSEYSKYLDSRRAQDFVQWLMNT-NH2)
- IC50 (Glucagon Receptor [1]; [6]): > 10000 nM
- IC50 (nM) (cAMP, inhibit 0.2 mM Glucagon) (Glucagon Receptor [2]; Table 12): no antagonism

Compound: FTSEYSKYLDSRRAQDFVQWLMNT-NH2 [[Glu^9]Glucagon(aa6-29)-NH2]
- IC50 (Glucagon Receptor [1]; [7]): 36.4 ± 5.23 nM
- IC50 (Glucagon Receptor [1]; read-out: IC50 (nM) receptor binding, Table 9): 36.4 ± 5.23 nM
- cAMP pA2 (Glucagon Receptor [2]): 7.16 ± 0.27

Compound: CSCC[C@H](NC(=O)[C@H](CC(C)C)NC(=O)[C@H](Cc1c[nH]c2ccccc12)NC(=O)[C@H](CCC(N)=O)NC(=O)[C@@H](NC(=O)[C@H](Cc1ccccc1)NC(=O)[C@H](CC(=O)O)NC(=O)[C@H](CCC(N)=O)NC(=O)[C@H](C)NC(=O)[C@H](CCCNC(=N)N)NC(=O)[C@H](CCCNC(=N)N)NC(=O)[C@H](CO)NC(=O)[C@H](CC(=O)O)NC(=O)[C@H](CC(C)C)NC(=O)[C@H](Cc1ccc(O)cc1)NC(=O)[C@H](CCCCN)NC(=O)[C@H](CO)NC(=O)[C@H](Cc1ccc(O)cc1)NC(=O)[C@H](CCC(=O)O)NC(=O)[C@H](CO)NC(=O)[C@@H](NC(=O)[C@@H](O)Cc1ccccc1)[C@@H](C)O)C(C)C)C(=O)N[C@@H](CC(N)=O)C(=O)N[C@H](C(N)=O)[C@@H](C)O [[PLA^6, E^9]Glucagon(aa6-29)-NH2] (H-[PhLac]TSEYSKYLDSRRAQDFVQWLMNT-NH2)
- IC50 (Glucagon Receptor [1]; read-out: IC50 (nM) (Receptor binding), Table 11, ND: not detected): 12.3 ± 0.13 nM
- Solubility (%, pH 6-8) [4]: 11%
- IC50 (Glucagon Receptor [2]; Glucagon antagonism IC50(nM, inhibit 0.5nM G), Table 25): 23.7 ± 4.16 nM
- GLP-1 agonism EC50(nM) (GLP-1 Receptor; Table 25): No agonism

Compound: CSCC[C@H](NC(=O)[C@H](CC(C)C)NC(=O)[C@H](Cc1c[nH]c2ccccc12)NC(=O)[C@H](CCC(N)=O)NC(=O)[C@@H](NC(=O)[C@H](Cc1ccccc1)NC(=O)[C@H](CC(=O)O)NC(=O)[C@H](CCC(N)=O)NC(=O)[C@H](C)NC(=O)[C@H](CCCNC(=N)N)NC(=O)[C@H](CCCNC(=N)N)NC(=O)[C@H](CO)NC(=O)[C@H](CC(=O)O)NC(=O)[C@H](CC(C)C)NC(=O)[C@H](Cc1ccc(O)cc1)NC(=O)[C@H](CCCCN)NC(=O)[C@H](CO)NC(=O)[C@H](Cc1ccc(O)cc1)NC(=O)[C@H](CC(=O)O)NC(=O)[C@H](CO)NC(=O)[C@@H](NC(=O)[C@@H](O)Cc1ccccc1)[C@@H](C)O)C(C)C)C(=O)N[C@@H](CC(N)=O)C(=O)N[C@H](C(N)=O)[C@@H](C)O [[PLA^6, D^9]Glucagon(aa6-29)-NH2] (H-[PhLac]TSDYSKYLDSRRAQDFVQWLMNT-NH2)
- Solubility (%, pH 6-8) [4]: 11%

Compound: GTFTSEYSKYLDSRRAQDFVQWLMNT-NH2 [[Glu^9]Glucagon(aa4-29)-NH2]
- IC50 (Glucagon Receptor [1]; [7]): 136 ± 17.8 nM
- IC50 (Glucagon Receptor [1]; read-out: Receptor Binding IC50, Table 4): 136 nM

Compound: Glucagon Cys^17 Mal-PEG-5K [Glucagon, Cys17PEG5K]
- Percent Soluble [5]: 94%

Compound: CSCC[C@H](NC(=O)[C@H](CC(C)C)NC(=O)[C@H](Cc1c[nH]c2ccccc12)NC(=O)[C@H](CCC(N)=O)NC(=O)[C@@H](NC(=O)[C@H](Cc1ccccc1)NC(=O)[C@H](CC(=O)O)NC(=O)[C@H](CCC(N)=O)NC(=O)[C@H](C)NC(=O)[C@H](CCCNC(=N)N)NC(=O)[C@H](CCCNC(=N)N)NC(=O)[C@H](CO)NC(=O)[C@H](CC(=O)O)NC(=O)[C@H](CC(C)C)NC(=O)[C@H](Cc1ccc(O)cc1)NC(=O)[C@H](CCCCN)NC(=O)[C@H](CO)NC(=O)[C@H](Cc1ccc(O)cc1)NC(=O)[C@H](CC(=O)O)NC(=O)[C@H](CO)NC(=O)[C@@H](NC(=O)[C@@H](O)Cc1ccccc1)[C@@H](C)O)C(C)C)C(=O)N[C@@H](CC(N)=O)C(=O)N[C@H](C(=O)O)[C@@H](C)O [[PLA^6, D^9]Glucagon(aa6-29)-COOH] (H-[PhLac]TSDYSKYLDSRRAQDFVQWLMNT-OH)
- Solubility (%, pH 6-8) [4]: 96%

Compound: Glucagon Cys^24 maleimido, PEG-3.4K-dimer [Glucagon C24 Dimer]
- EC50 (Glucagon Receptor [3]; read-out: cAMP Induction Glucagon Receptor EC50, Table 3, pegylated analogs): 0.1 ± 0.05 nM

Compound: [C^8(20kDaPEG), E^9]Glucagon(aa6-29)-NH2 (FTC(PEG 20 kDa)EYSKYLDSRRAQDFVQWLMNT-NH2)
- IC50 (Glucagon Receptor [1]; [6]): > 1000 nM
- IC50 (nM) (cAMP, inhibit 0.2 mM Glucagon) (Glucagon Receptor [2]; Table 12): no antagonism

Compound: [E^9, C^24 (20kDaPEG)]Glucagon(aa6-29)-NH2 (FTSEYSKYLDSRRAQDFVC(PEG 20 kDa)WLMNT-NH2)
- IC50 (Glucagon Receptor [1]; [6]): > 1000 nM
- IC50 (Glucagon Receptor [1]; read-out: IC50 (nM) (Receptor binding), Table 12, listed as [Phe^6, E^9, C^24(20kDaPEG)]Glucagon(aa6-29)-NH2): > 10000 nM
- IC50 (nM) (cAMP, inhibit 0.2 mM Glucagon) (Glucagon Receptor [2]; Table 12): no antagonism

Compound: CSCC[C@H](NC(=O)[C@H](CC(C)C)NC(=O)[C@H](Cc1c[nH]c2ccccc12)NC(=O)[C@H](CCC(N)=O)NC(=O)[C@@H](NC(=O)[C@H](Cc1ccccc1)NC(=O)[C@H](CC(=O)O)NC(=O)[C@H](CCC(N)=O)NC(=O)[C@H](C)NC(=O)[C@H](CCCNC(=N)N)NC(=O)[C@H](CCCNC(=N)N)NC(=O)[C@H](CO)NC(=O)[C@H](CC(=O)O)NC(=O)[C@H](CC(C)C)NC(=O)[C@H](Cc1ccc(O)cc1)NC(=O)[C@H](CCCCN)NC(=O)[C@H](CO)NC(=O)[C@H](Cc1ccc(O)cc1)NC(=O)[C@H](CCC(=O)O)NC(=O)[C@H](CO)NC(=O)[C@@H](NC(=O)[C@@H](O)Cc1ccccc1)[C@@H](C)O)C(C)C)C(=O)N[C@@H](CC(N)=O)C(=O)N[C@H](C(=O)NCC(=O)N1CCC[C@H]1C(=O)N[C@@H](CO)C(=O)N[C@@H](CO)C(=O)NCC(=O)N[C@@H](C)C(=O)N1CCC[C@H]1C(=O)N1CCC[C@H]1C(=O)N1CCC[C@H]1C(=O)N[C@@H](CO)C(N)=O)[C@@H](C)O [[PLA^6, E^9]Glucagon (aa6-29 + CEX)-NH2] (H-[PhLac]TSEYSKYLDSRRAQDFVQWLMNTGPSSGAPPPS-NH2)
- Solubility (%, pH 6-8) [4]: 16%

Compound: [d-Cys^5(20kDaPEG), E^9]Glucagon(aa5-29)-NH2 ([dC](PEG 20 kDa)FTSEYSKYLDSRRAQDFVQWLMNT-NH2)
- IC50 (Glucagon Receptor [1]; [6]): > 10000 nM
- IC50 (Glucagon Receptor [2]; read-out: IC50 (nM) (cAMP, inhibit 0.2 mM Glucagon), Table 12, inhibit 0.2 mM Glucagon): 14800 nM

Compound: CSCC[C@H](NC(=O)[C@H](CC(C)C)NC(=O)[C@H](Cc1c[nH]c2ccccc12)NC(=O)[C@H](CCC(N)=O)NC(=O)[C@@H](NC(=O)[C@H](Cc1ccccc1)NC(=O)[C@H](CC(=O)O)NC(=O)[C@H](CCC(N)=O)NC(=O)[C@H](C)NC(=O)[C@H](CCCNC(=N)N)NC(=O)[C@H](CCCNC(=N)N)NC(=O)[C@H](CO)NC(=O)[C@H](CC(=O)O)NC(=O)[C@H](CC(C)C)NC(=O)[C@H](Cc1ccc(O)cc1)NC(=O)[C@H](CCCCN)NC(=O)[C@H](CO)NC(=O)[C@H](Cc1ccc(O)cc1)NC(=O)[C@H](CC(=O)O)NC(=O)[C@H](CO)NC(=O)[C@@H](NC(=O)[C@@H](O)Cc1ccccc1)[C@@H](C)O)C(C)C)C(=O)N[C@@H](CC(=O)O)C(=O)N[C@H](C(N)=O)[C@@H](C)O [[PLA^6, D^9, D^28] Glucagon(aa6-29)-NH2]
- Solubility (%, pH 6-8) [4]: 100%

Compound: CSCC[C@H](NC(=O)[C@H](CC(C)C)NC(=O)[C@H](Cc1c[nH]c2ccccc12)NC(=O)[C@H](CCC(N)=O)NC(=O)[C@@H](NC(=O)[C@H](Cc1ccccc1)NC(=O)[C@H](CC(=O)O)NC(=O)[C@@H]1CCCCNC(=O)CC[C@H](NC(=O)[C@H](CC(=O)O)NC(=O)[C@H](CC(C)C)NC(=O)[C@H](Cc2ccc(O)cc2)NC(=O)[C@H](CCCCN)NC(=O)[C@H](CO)NC(=O)[C@H](Cc2ccc(O)cc2)NC(=O)[C@H](CC(=O)O)NC(=O)[C@H](CO)NC(=O)[C@@H](NC(=O)[C@@H](O)Cc2ccccc2)[C@@H](C)O)C(=O)N[C@@H](CCCNC(=N)N)C(=O)N[C@@H](CCCNC(=N)N)C(=O)N[C@@H](C)C(=O)N1)C(C)C)C(=O)N[C@@H](CC(=O)O)C(=O)N[C@H](C(N)=O)[C@@H](C)O [[PLA6, D9, E16K20(lactam), D28]G(6-29)] (H-[PhLac]TSDYSKYLDERRAKDFVQWLMDT-NH2; lactam 11-15)
- IC50 (Glucagon Receptor [2]; Glucagon IC50 (nM), Table 14): 10 to 30 nM
- IC50 (Glucagon Receptor [2]; Glucagon antagonism IC50(nM) (inhibit 0.2-0.8 nM glucagon), Table 21): 5 to 27 nM
- IC50 (Glucagon Receptor [2]; Glucagon antagonism IC50 (nM, inhibit 0.4 nM glucagon), Table 22): 5 to 27 nM
- IC50 (Glucagon Receptor [2]; Glucagon antagonism IC50 (nM, inhibit 0.8 nM glucagon), Table 19): 13.7 ± 1.2 nM
- IC50 (Glucagon Receptor [2]; Glucagon antagonism IC50 (nM, inhibit 0.2-0.8 nM glucagon), Table 17): 11.7 ± 2.8 nM
- IC50 (Glucagon Receptor [2]; Glucagon antagonism IC50 (nM, inhibit 0.2-0.8 nM glucagon), Table 18): 5.5 nM
- EC50 (GLP-1 Receptor; GLP-1 EC50 (nM), Table 14): 5 to 25 nM
- EC50 (GLP-1 Receptor; GLP-1 agonism EC50 (nM), Table 17): 6.9 nM and 4.2 nM
- EC50 (GLP-1 Receptor; GLP-1 agonism EC50 (nM), Table 19): 10.6 ± 0.97 nM
- EC50 (GLP-1 Receptor; GLP-1 agonism EC50 (nM), Table 21): 5 to 28 nM
